In one assay the target is T1, TG1 (Homo sapiens, UniProt P22735).
T1 sequence (P22735 1-817): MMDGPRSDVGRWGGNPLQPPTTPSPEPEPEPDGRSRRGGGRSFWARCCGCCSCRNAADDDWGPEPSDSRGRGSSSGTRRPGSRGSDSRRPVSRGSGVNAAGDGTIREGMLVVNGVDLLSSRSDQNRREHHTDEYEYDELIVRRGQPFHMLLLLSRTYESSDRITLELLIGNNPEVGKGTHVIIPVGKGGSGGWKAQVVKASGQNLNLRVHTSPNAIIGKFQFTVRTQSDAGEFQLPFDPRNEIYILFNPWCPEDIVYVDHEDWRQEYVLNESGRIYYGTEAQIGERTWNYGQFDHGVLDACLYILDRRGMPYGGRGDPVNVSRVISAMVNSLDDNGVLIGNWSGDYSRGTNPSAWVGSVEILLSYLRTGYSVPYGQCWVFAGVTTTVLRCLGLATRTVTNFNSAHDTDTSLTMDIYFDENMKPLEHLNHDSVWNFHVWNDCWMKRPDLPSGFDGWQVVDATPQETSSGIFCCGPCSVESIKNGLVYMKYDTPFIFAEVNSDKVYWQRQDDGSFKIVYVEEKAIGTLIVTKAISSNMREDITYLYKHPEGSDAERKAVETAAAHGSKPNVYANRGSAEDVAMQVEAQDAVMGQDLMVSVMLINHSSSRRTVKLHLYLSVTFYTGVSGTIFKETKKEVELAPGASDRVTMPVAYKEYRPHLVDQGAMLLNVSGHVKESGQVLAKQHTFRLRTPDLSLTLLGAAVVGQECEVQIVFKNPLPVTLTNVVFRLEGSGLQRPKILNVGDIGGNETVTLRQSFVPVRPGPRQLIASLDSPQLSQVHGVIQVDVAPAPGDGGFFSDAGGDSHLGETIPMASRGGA
The experiment in a line: glutamate dehydrogenase-coupled deamidation assay, substrate Cbz-Gln-Ser. The class given is biochemical. The conditions noted are these: irreversible inhibition model, full progress curves.

Assay [1] concerns the target T2, TG2 (Homo sapiens, UniProt P21980).
T2 sequence (P21980 1-687): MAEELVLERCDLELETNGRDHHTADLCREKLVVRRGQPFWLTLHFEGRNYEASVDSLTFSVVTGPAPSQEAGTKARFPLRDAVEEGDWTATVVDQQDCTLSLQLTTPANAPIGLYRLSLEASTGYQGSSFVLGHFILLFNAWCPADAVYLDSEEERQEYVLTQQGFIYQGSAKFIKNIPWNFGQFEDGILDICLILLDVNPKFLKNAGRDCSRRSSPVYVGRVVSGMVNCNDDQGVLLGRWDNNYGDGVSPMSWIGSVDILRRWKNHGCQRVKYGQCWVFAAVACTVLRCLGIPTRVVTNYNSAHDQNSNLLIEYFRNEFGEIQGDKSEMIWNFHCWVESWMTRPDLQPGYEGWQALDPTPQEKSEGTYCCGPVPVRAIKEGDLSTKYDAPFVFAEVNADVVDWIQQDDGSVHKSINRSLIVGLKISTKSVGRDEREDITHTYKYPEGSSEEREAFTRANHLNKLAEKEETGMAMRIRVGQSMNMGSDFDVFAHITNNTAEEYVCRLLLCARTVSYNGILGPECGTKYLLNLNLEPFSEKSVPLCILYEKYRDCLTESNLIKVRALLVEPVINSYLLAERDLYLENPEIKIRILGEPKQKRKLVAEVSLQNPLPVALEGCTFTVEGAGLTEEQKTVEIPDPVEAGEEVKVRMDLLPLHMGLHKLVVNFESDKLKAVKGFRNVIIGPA
As to the kind of experiment: glutamate dehydrogenase-coupled deamidation assay, substrate Cbz-Gln-Gly. In kind it is biochemical. The conditions noted are these: irreversible inhibition model, full progress curves.

In assay [2] the target is T3, TG2 (Mus musculus, UniProt P21981).
T3 construct: host or cells: mice (in vivo)
T3 sequence (P21981 1-686): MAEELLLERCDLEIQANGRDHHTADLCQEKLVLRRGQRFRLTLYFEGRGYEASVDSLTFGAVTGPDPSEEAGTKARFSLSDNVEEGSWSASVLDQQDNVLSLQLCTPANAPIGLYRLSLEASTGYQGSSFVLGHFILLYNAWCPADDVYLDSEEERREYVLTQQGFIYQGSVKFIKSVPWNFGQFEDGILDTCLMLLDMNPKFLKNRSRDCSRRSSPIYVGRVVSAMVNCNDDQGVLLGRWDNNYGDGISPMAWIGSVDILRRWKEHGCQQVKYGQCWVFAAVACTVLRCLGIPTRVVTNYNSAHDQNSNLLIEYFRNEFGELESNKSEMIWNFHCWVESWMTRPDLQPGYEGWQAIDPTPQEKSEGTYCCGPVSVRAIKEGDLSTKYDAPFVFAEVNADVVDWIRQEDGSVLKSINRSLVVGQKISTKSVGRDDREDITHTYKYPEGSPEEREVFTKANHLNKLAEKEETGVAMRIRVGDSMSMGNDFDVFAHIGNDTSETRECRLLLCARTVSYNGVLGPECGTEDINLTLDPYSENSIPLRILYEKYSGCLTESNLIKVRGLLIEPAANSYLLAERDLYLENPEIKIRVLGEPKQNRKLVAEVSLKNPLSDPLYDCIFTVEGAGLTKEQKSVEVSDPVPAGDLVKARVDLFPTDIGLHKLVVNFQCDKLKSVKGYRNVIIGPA
As to the kind of experiment: TG2 activity (5-BP probe) in tissues of LPS-induced septic mice. In kind it is in vivo. The conditions noted are these: septic mice (LPS 5 mg/kg iv); 50 mg/kg intraperitoneally. The procedure: FIG. 2: TG2 is active in septic mice and can be inhibited by the intraperitoneal administration of 50 mg/kg CK996: Panels (A) through (C) depict tissues from the liver, lung and small intestine from septic male BL6 mice that were stained for TG2 protein (top row) or TG2 activity (middle row). The bottom row depicts the merged images from the TG2 protein and activity channel, respectively. Tissues from mice that had received the TG2 inhibitor CK996 are shown in the right set of images in each panel whereas tissues from control mice that received vehicle only are shown in the left set of images. Panel (D) quantifies the ratio of TG2 activity to TG2 protein signal intensity. All mice in this study received lipopolysaccharide (LPS, 5 mg/kg i.v., at t=0) and the TG2 activity-based probe 5-biotinamidopentylamine (5-BP, 100 mg/kg i.p., at t=0 and 90 min)(Dafik et al., 2012; Siegel et al., 2008). One cohort of mice additionally received an intraperitoneal dose of the TG2 inhibitor CK996 (50 mg/kg i.p., at t=0 and 60 min) in vehicle (PBS with 10% DMSO and 2% 2,6-di-(OMe)-beta-cyclodextrin), whereas the control mice received the vehicle alone. At 3 hours the mice were euthanized, tissues collected and frozen in OCT medium and then TG2 protein and activity (5-BP) stained, imaged and quantified as described in the literature (Diraimondo et al., 2013 ACS Chem. Biol.). […]

For `O=C(N[C@@H]1C[C@@H](C(=O)NC[C@@H]2CC(Br)=NO2)N(C(=O)OCc2cnc3ccccc3c2)C1)c1cccnc1` [Compound 5, (2S,4R)-quinolin-3-ylmethyl 2-((((S)-3-bromo-4,5-dihydroisoxazol-5-yl)methyl)carbamoyl)-4-(nicotinamido)pyrrolidine-1-carboxylate], at TG1, the “kinh/Ki TG1” value is 333 M⁻¹ s⁻¹. In addition, the “kinh/Ki TG2” value at TG2 [1] is 1800 M⁻¹ s⁻¹. The “TG2 activity in intestines, livers and lungs” value at TG2 [2] was “fully suppressed”.

These data come from patent US10010541B2, “Modulation of tissue transglutaminase activation in disease” (The Board of Trustees of the Leland Stanford Junior …, priority 2014, dated 2018).
